Measured values: US8802597B2, “Herbicidal pyrimidines” (E I du Pont de Nemours and Company, priority 2003, dated 2014)

Tests used:
Assay in all cases: Test C postemergence
Format in all cases: in vivo
[1] = system: downy brome (Bromus tectorum)
Outline: (§1)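 Greenhouse pot test: seeds treated preemergence, or plants at 2–18 cm (1- to 4-leaf stage) treated postemergence, with compound in non-phytotoxic solvent plus surfactant. Visual rating versus untreated controls after 12–14 days, scale 0 (no effect) to 100 (complete control); dash means not tested.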

[2] = system: blackgrass (Alopecurus myosuroides)
Outline: as §1

[3] = system: wheat (Triticum aestivum)
Outline: as §1

[4] = system: wild oat (Avena fatua)
Outline: as §1

[5] = system: canarygrass (Phalaris minor)
Outline: as §1

[6] = system: Italian ryegrass (Lolium multiflorum)
Outline: as §1

[7] = system: winter barley (Hordeum vulgare)
Outline: as §1

[8] = system: windgrass (Apera spica-venti)
Outline: as §1

[9] = system: green foxtail (Setaria viridis)
Outline: as §1

SMILES: CNc1nc(C2CC2)nc(C(=O)OC)c1Cl [Compound 79]
- Plant response rating (scale of 0 to 100), Bromegrass, Downy ([1]; 16 g ai/ha): 0
- Plant response rating (scale of 0 to 100), Bromegrass, Downy ([1]; 31 g ai/ha): 20
- Plant response rating (scale of 0 to 100), Bromegrass, Downy ([1]; 62 g ai/ha): 30
- pest or weed control at 125 g/ha ([1]; Bromus tectorum, post-emergence, 125 g ai/ha, scale 0 to 100 (0 no effect, 100 complete control), read-out: Bromegrass, Downy plant response rating): 35%
- Plant response rating (scale of 0 to 100), Blackgrass ([2]; 16 g ai/ha): 20
- Plant response rating (scale of 0 to 100), Blackgrass ([2]; 31 g ai/ha): 40
- Plant response rating (scale of 0 to 100), Blackgrass ([2]; 62 g ai/ha): 60
- pest or weed control at 125 g/ha ([2]; Alopecurus myosuroides, post-emergence, 125 g ai/ha, scale 0 to 100 (0 no effect, 100 complete control), read-out: Blackgrass plant response rating): 60%
- Plant response rating (scale of 0 to 100), Wheat ([3]; 16 g ai/ha): 0
- Plant response rating (scale of 0 to 100), Wheat ([3]; 31 g ai/ha): 20
- Plant response rating (scale of 0 to 100), Wheat ([3]; 62 g ai/ha): 30
- plant injury at 125 g/ha ([3]; Triticum aestivum, post-emergence, 125 g ai/ha, scale 0 to 100 (0 no effect, 100 complete control), read-out: Wheat plant response rating): 40%
- Plant response rating (scale of 0 to 100), Oat, Wild ([4]; 16 g ai/ha): 0
- Plant response rating (scale of 0 to 100), Oat, Wild ([4]; 31 g ai/ha): 25
- Plant response rating (scale of 0 to 100), Oat, Wild ([4]; 62 g ai/ha): 25
- pest or weed control at 125 g/ha ([4]; Avena fatua, post-emergence, 125 g ai/ha, scale 0 to 100 (0 no effect, 100 complete control), read-out: Oat, Wild plant response rating): 45%
- Plant response rating (scale of 0 to 100), Canarygrass ([5]; 16 g ai/ha): 0
- Plant response rating (scale of 0 to 100), Canarygrass ([5]; 31 g ai/ha): 20
- Plant response rating (scale of 0 to 100), Canarygrass ([5]; 62 g ai/ha): 25
- pest or weed control at 125 g/ha ([5]; Phalaris minor, post-emergence, 125 g ai/ha, scale 0 to 100 (0 no effect, 100 complete control), read-out: Canarygrass plant response rating): 35%
- Plant response rating (scale of 0 to 100), Ryegrass, Italian ([6]; 16 g ai/ha): 35
- Plant response rating (scale of 0 to 100), Ryegrass, Italian ([6]; 31 g ai/ha): 35
- Plant response rating (scale of 0 to 100), Ryegrass, Italian ([6]; 62 g ai/ha): 40
- pest or weed control at 125 g/ha ([6]; Lolium multiflorum, post-emergence, 125 g ai/ha, scale 0 to 100 (0 no effect, 100 complete control), read-out: Ryegrass, Italian plant response rating): 45%
- Plant response rating (scale of 0 to 100), Barley ([7]; 16 g ai/ha): 0
- Plant response rating (scale of 0 to 100), Barley ([7]; 31 g ai/ha): 30
- plant injury at 62 g/ha ([7]; Hordeum vulgare, post-emergence, 62 g ai/ha, scale 0 to 100 (0 no effect, 100 complete control), read-out: Barley plant response rating): 35%
- plant injury at 125 g/ha ([7]; Hordeum vulgare, post-emergence, 125 g ai/ha, scale 0 to 100 (0 no effect, 100 complete control), read-out: Barley plant response rating): 35%
- Plant response rating (scale of 0 to 100), Windgrass ([8]; 16 g ai/ha): 40
- Plant response rating (scale of 0 to 100), Windgrass ([8]; 31 g ai/ha): 40
- Plant response rating (scale of 0 to 100), Windgrass ([8]; 62 g ai/ha): 45
- pest or weed control at 125 g/ha ([8]; Apera spica-venti, post-emergence, 125 g ai/ha, scale 0 to 100 (0 no effect, 100 complete control), read-out: Windgrass plant response rating): 50%
- Plant response rating (scale of 0 to 100), Foxtail, Green ([9]; 16 g ai/ha): 20
- Plant response rating (scale of 0 to 100), Foxtail, Green ([9]; 31 g ai/ha): 20
- Plant response rating (scale of 0 to 100), Foxtail, Green ([9]; 62 g ai/ha): 30
- pest or weed control at 125 g/ha ([9]; Setaria viridis, post-emergence, 125 g ai/ha, scale 0 to 100 (0 no effect, 100 complete control), read-out: Foxtail, Green plant response rating): 60%
